Results as given in ChEMBL document CHEMBL1909046, “DrugMatrix in vitro pharmacology data”.

Columns and labels:
[1] = DRUGMATRIX: GABAA, Muscimol, Central radioligand binding (ligand: [3H] Muscimol); format: cell membranes, Rattus norvegicus, Wistar, Brain, Membrane; details: Not Active = under 50% inhibition at 10 µM
[2] = target: Sodium-dependent dopamine transporter (Homo sapiens, UniProt Q01959); assay: DRUGMATRIX: Dopamine Transporter radioligand binding (ligand: [125I] RTI-55); format: cell membranes, CHO-K1, Membrane; details: Not Active = under 50% inhibition at 10 µM
Sequence of Sodium-dependent dopamine transporter (Q01959 whole entry): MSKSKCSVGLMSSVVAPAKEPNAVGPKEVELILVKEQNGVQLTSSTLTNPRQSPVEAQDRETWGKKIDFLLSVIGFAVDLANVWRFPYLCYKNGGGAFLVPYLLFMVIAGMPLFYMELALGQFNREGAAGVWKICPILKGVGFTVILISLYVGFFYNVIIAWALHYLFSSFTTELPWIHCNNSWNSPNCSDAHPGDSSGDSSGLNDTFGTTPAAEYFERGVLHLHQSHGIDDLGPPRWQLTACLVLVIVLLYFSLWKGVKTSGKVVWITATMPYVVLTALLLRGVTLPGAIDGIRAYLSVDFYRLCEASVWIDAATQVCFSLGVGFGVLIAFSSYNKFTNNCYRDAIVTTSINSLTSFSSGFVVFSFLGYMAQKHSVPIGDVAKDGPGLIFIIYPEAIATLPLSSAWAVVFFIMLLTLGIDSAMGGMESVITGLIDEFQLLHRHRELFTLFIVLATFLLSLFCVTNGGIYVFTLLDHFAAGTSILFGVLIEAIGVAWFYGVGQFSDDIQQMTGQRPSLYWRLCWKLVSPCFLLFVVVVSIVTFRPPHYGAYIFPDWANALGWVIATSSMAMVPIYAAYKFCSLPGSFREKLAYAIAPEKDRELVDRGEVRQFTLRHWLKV

[3] = target: T1, 5-hydroxytryptamine receptor 2C (Homo sapiens, UniProt P28335); assay: DRUGMATRIX: Serotonin (5-Hydroxytryptamine) 5-HT2C radioligand binding (ligand: [3H] Mesulergine); format: cell membranes, CHO-K1, Membrane; details: cho-k1; Not Active = under 50% inhibition at 10 µM
T1 sequence (P28335 whole entry): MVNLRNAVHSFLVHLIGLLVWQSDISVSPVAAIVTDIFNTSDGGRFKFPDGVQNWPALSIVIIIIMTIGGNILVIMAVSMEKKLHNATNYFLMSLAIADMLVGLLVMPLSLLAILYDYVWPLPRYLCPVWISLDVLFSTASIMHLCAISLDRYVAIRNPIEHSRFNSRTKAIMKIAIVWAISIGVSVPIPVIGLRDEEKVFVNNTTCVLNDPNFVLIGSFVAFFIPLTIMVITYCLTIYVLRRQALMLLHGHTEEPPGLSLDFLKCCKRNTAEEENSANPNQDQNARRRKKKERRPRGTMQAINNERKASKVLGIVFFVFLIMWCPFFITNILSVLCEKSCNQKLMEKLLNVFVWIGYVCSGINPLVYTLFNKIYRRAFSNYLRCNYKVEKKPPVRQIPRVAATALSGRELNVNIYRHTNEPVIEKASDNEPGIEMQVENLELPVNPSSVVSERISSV

Cytochrome P450 2E1 = Cytochrome P450 2E1 (Homo sapiens, UniProt P05181); details: bti-tn-5b1-4; also: in other assays of this panel Not Active means under 50% inhibition at 10 µM
Sequence of Cytochrome P450 2E1 (P05181 whole entry): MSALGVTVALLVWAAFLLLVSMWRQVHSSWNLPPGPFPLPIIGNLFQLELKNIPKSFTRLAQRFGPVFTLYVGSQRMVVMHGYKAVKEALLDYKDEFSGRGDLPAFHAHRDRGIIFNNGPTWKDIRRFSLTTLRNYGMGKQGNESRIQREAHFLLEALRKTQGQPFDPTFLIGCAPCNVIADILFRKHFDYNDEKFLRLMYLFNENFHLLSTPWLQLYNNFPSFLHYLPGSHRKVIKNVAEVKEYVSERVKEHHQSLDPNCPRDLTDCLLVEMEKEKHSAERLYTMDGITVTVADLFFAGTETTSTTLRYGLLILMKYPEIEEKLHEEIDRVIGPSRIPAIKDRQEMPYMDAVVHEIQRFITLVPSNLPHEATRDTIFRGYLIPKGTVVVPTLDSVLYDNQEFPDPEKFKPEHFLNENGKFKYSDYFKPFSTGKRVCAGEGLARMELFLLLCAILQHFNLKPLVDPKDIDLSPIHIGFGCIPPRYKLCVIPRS

[4] = DRUGMATRIX: Atrial Natriuretic Factor (ANF) radioligand binding (ligand: [125I] ANF (rat)); format: cell membranes, Cavia porcellus, Dunkin-Hartley, Adrenal gland, Membrane; details: Not Active = under 50% inhibition at 10 µM
Melanocortin receptor 4 = Melanocortin receptor 4 (Homo sapiens, UniProt P32245); format: cell membranes, HEK293, Membrane; details: hek293; also: in other assays of this panel Not Active means under 50% inhibition at 10 µM
Sequence of Melanocortin receptor 4 (P32245 whole entry): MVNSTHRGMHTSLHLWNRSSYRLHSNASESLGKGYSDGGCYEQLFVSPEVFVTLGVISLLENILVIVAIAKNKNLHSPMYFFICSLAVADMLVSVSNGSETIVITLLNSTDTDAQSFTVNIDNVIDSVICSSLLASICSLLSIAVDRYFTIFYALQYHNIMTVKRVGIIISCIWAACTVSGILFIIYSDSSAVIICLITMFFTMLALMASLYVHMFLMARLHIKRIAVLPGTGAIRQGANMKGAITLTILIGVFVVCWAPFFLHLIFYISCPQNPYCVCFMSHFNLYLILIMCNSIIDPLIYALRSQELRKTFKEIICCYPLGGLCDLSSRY

| Molecule | IC50 [1] | Ki [1] | IC50 ([2]; cho-k1) | IC50 [3] | IC50 (Cytochrome P450 2E1) | Ki (Cytochrome P450 2E1) | IC50 [4] | Ki [4] | IC50 (Melanocortin receptor 4) | IC50 ([2]; read-out: IC50) [µM] | Ki ([2]; read-out: Ki) [µM] | Ki ([2]; cho-k1) | Ki [3] | Ki (Melanocortin receptor 4) |
| --- | --- | --- | --- | --- | --- | --- | --- | --- | --- | --- | --- | --- | --- | --- |
| CSc1ccc(/C=C2/C(C)=C(CC(=O)O)c3cc(F)ccc32)cc1 [SULINDAC SULFIDE] | Not Active | Not Active | Not Active | Not Active | Not Active | Not Active | Not Active | Not Active | Not Active | – | – | – | – | – |
| Nc1c2c(nc3ccccc13)CCCC2 [TACRINE] | Not Active | Not Active | Not Active | Not Active | Not Active | Not Active | Not Active | Not Active | Not Active | – | – | – | – | – |
| Nc1nc2nc[nH]c2c(=S)[nH]1 [THIOGUANINE] | Not Active | Not Active | Not Active | Not Active | Not Active | Not Active | Not Active | Not Active | Not Active | – | – | – | – | – |
| Cc1cccc(N(C)C(=S)Oc2ccc3ccccc3c2)c1 [TOLNAFTATE] | Not Active | Not Active | Not Active | Not Active | Not Active | Not Active | Not Active | Not Active | Not Active | – | – | – | – | – |
| NC[C@H]1CC[C@H](C(=O)O)CC1 [TRANEXAMIC ACID] | Not Active | Not Active | Not Active | Not Active | Not Active | Not Active | Not Active | Not Active | Not Active | – | – | – | – | – |
| CC1(C)O[C@@H]2C[C@H]3[C@@H]4CCC5=CC(=O)C=C[C@]5(C)[C@@]4(F)[C@@H](O)C[C@]3(C)[C@]2(C(=O)CO)O1 [TRIAMCINOLONE ACETONIDE] | Not Active | Not Active | Not Active | Not Active | Not Active | Not Active | Not Active | Not Active | Not Active | – | – | – | – | – |
| NS(=O)(=O)c1cc2c(cc1Cl)NC(C(Cl)Cl)NS2(=O)=O (stereo unspecified) [TRICHLORMETHIAZIDE] | Not Active | Not Active | Not Active | Not Active | Not Active | Not Active | Not Active | Not Active | Not Active | – | – | – | – | – |
| Cc1c(C)c2c(c(C)c1O)CCC(C)(COc1ccc(CC3SC(=O)NC3=O)cc1)O2 (stereo unspecified) [TROGLITAZONE] | Not Active | Not Active | Not Active | Not Active | Not Active | Not Active | Not Active | Not Active | Not Active | – | – | – | – | – |
| N[C@@H]1[C@H]2CN(c3nc4c(cc3F)c(=O)c(C(=O)O)cn4-c3ccc(F)cc3F)C[C@@H]12 [TROVAFLOXACIN] | Not Active | Not Active | – | Not Active | Not Active | Not Active | Not Active | Not Active | Not Active | 62.2 | 49.4 | – | – | – |
| N#CC(C#N)=Cc1ccc(O)c(O)c1 [TYRPHOSTIN 23] | Not Active | Not Active | Not Active | Not Active | Not Active | Not Active | Not Active | Not Active | Not Active | – | – | – | – | – |
| CC[C@]1(O)C[C@H]2CN(CCc3c([nH]c4ccccc34)[C@@](C(=O)OC)(c3cc4c(cc3OC)N(C=O)[C@H]3[C@@](O)(C(=O)OC)[C@H](OC(C)=O)[C@]5(CC)C=CCN6CC[C@]43[C@@H]65)C2)C1 [VINCRISTINE] | Not Active | Not Active | Not Active | Not Active | Not Active | Not Active | Not Active | Not Active | Not Active | – | – | – | – | – |
| CCCOc1ccccc1-c1nc2nn[nH]c2c(=O)[nH]1 [ZAPRINAST] | Not Active | Not Active | Not Active | Not Active | Not Active | Not Active | Not Active | Not Active | Not Active | – | – | – | – | – |
| SODIUM NITROPRUSSIDE | Not Active | Not Active | Not Active | Not Active | Not Active | Not Active | Not Active | Not Active | Not Active | – | – | Not Active | Not Active | Not Active |
